Tests used:
[1] = biological target: CDK2/CycE (Homo sapiens (Human), UniProt P24941); assay: CDK2/CycE kinase assay (TR-FRET); assay type: biochemical; settings: 10 μM ATP; read-out: CDK2 avg (IC50 [mol/l])
Text: CDK2/CycE-inhibitory activity of compounds of the present invention was quantified employing the CDK2/CycE TR-FRET assay as described in the following paragraphs.
Recombinant fusion proteins of GST and human CDK2 and of GST and human CycE, expressed in insect cells (Sf9) and purified by Glutathion-Sepharose affinity chromatography, were purchased from ProQinase GmbH (Freiburg, Germany). As substrate for the kinase reaction biotinylated peptide biotin-Ttds-YISPLKSPYKISEG (C-terminus in amid form) was used which can be purchased e.g. form the company JERINI peptide technologies (Berlin, Germany).
For the assay 50 nl of a 100 fold concentrated solution of the test compound in DMSO was pipetted into a black low volume 384 well microtiter plate (Greiner Bio-One, Frickenhausen, Germany), 2 μl of a solution of CDK2/CycE in aqueous assay buffer [50 mM Tris/HCl pH 8.0, 10 mM MgCl2, 1.0 mM dithiothreitol, 0.1 mM sodium ortho-vanadate, 0.01% (v/v) Nonidet-P40 (Sigma)] were added and the mixture was incubated for 15 min at 22° C. to allow pre-binding of the test compounds to the enzyme before the start of the kinase reaction. Then the kinase reaction was started by the addition of 3 μl of a solution of adenosine-tri-phosphate (ATP, 16.7 μM=>final conc. in the 5 μl assay volume is 10 μM) and substrate (1.25 μM=>final conc. in the 5 μl assay volume is 0.75 μM) in assay buffer and the resulting mixture was incubated for a reaction time of 25 min at 22° C. The concentration of CDK2/CycE was adjusted depending of the activity of the enzyme lot and was chosen appropriate to have the assay in the linear range, typical concentrations were in the range of 130 ng/ml. The reaction was stopped by the addition of 5 μl of a solution of TR-FRET detection reagents (0.2 μM streptavidine-XL665 [Cisbio Bioassays, Codolet, France] and 1 nM anti-RB(pSer807/pSer811)-antibody from BD Pharmingen [#558389] and 1.2 nM LANCE EU-W1024 labeled anti-mouse IgG antibody [Perkin-Elmer, product no. AD0077, as an alternative a Terbium-cryptate-labeled anti-mouse IgG antibody from Cisbio Bioassays can be used]) in an aqueous EDTA-solution (100 mM EDTA, 0.2% (w/v) bovine serum albumin in 100 mM HEPES/NaOH pH 7.0).
The resulting mixture was incubated 1 h at 22° C. to allow the formation of complex between the phosphorylated biotinylated peptide and the detection reagents. Subsequently the amount of phosphorylated substrate was evaluated by measurement of the resonance energy transfer from the Eu-chelate to the streptavidine-XL. Therefore, the fluorescence emissions at 620 nm and 665 nm after excitation at 350 nm was measured in a TR-FRET reader, e.g. a Rubystar (BMG Labtechnologies, Offenburg, Germany) or a Viewlux (Perkin-Elmer). The ratio of the emissions at 665 nm and at […] was taken as the measure for the amount of phosphorylated substrate. The data were normalised (enzyme reaction without inhibitor=0% inhibition, all other assay components but no enzyme=100% inhibition).

[2] = biological target: human kinase Mps-1 (Homo sapiens (Human), UniProt P33981); assay: Mps-1 kinase assay (TR-FRET); assay type: biochemical; settings: 10 μM ATP; read-out: Mps1 avg (IC50 [mol/l])
Protocol: The human kinase Mps-1 phosphorylates a biotinylated substrate peptide. Detection of the phosphorylated product is achieved by time-resolved fluorescence resonance energy transfer (TR-FRET) from Europium-labelled anti-phospho-Serine/Threonine antibody as donor to streptavidin labelled with cross-linked allophycocyanin (SA-XLent) as acceptor. Compounds are tested for their inhibition of the kinase activity.
N-terminally GST-tagged human full length recombinant Mps-1 kinase (purchased from Invitrogen, Karslruhe, Germany, cat. no PV4071) was used. As substrate for the kinase reaction a biotinylated peptide of the amino-acid sequence biotin-Ahx-PWDPDDADITEILG (C-terminus in amide form, purchased from Biosyntan GmbH, Berlin) was used.
For the assay 50 nl of a 100-fold concentrated solution of the test compound in DMSO was pipetted into a black low volume 384 well microtiter plate (Greiner Bio-One, Frickenhausen, Germany), 2 μl of a solution of Mps-1 in assay buffer [0.1 mM sodium-ortho-vanadate, 10 mM MgCl2, 2 mM DTT, 25 mM Hepes pH 7.7, 0.05% BSA (w/v), 0.001% Pluronic F-127] were added and the mixture was incubated for 15 min at 22° C. to allow pre-binding of the test compounds to Mps-1 before the start of the kinase reaction. Then the kinase reaction was started by the addition of 3 μl of a solution of 16.7 μM adenosine-tri-phosphate (ATP, 16.7 μM=>final conc. in the 5 μl assay volume is 10 μM) and peptide substrate (1.67 μM=>final conc. in the 5 μl assay volume is 1 μM) in assay buffer and the resulting mixture was incubated for a reaction time of 60 min at 22° C. The concentration of Mps-1 in the assay was adjusted to the activity of the enzyme lot and was chosen appropriate to have the assay in the linear range, typical enzyme concentrations were in the range of about 0.5 nM (final conc. in the 5 μl assay volume). The reaction was stopped by the addition of 5 μl of a solution of TR-FRET detection reagents (100 mM Hepes pH 7.4, 0.1% BSA, 40 mM EDTA, 140 nM Streptavidin-XLent [#61GSTXLB, Fa. Cis Biointernational, Marcoule, France], 1.5 nM anti-phospho(Ser/Thr)-Europium-antibody [#AD0180, PerkinElmer LAS, Rodgau-Jugesheim, Germany]. Instead of the 1.5 nM anti-phospho(Ser/Thr)-Europium-antibody a mixture of 2 nM unlabeled anti-phospho ser/thr-pro antibody MPM-2 [Millipore cat. #05-368] and 1 nM LANCE EU-W1024 labeled anti-mouse IgG antibody [Perkin-Elmer, product no. AD0077] can be used).
The resulting mixture was incubated 1 h at 22° C. to allow the binding of the phosphorylated peptide to the anti-phospho(Ser/Thr)-Europium-antibody. Subsequently the amount of phosphorylated substrate was evaluated by measurement of the resonance energy transfer from the Europium-labelled anti-phospho(Ser/Thr) antibody to the Streptavidin-XLent. Therefore, the fluorescence emissions at 620 nm and 665 nm after excitation at 350 nm was measured in a Viewlux TR-FRET reader (PerkinElmer LAS, Rodgau-Jugesheim, Germany). The “blank-corrected normalized ratio” (a Viewlux specific readout, similar to the traditional ratio of the emissions at 665 nm and at 622 nm, in which blank and Eu-donor crosstalk are subtracted from the 665 nm signal before the ratio is calculated) was taken as the measure for the amount of phosphorylated substrate. The data were normalised (enzyme reaction without inhibitor=0% inhibition, all other assay components but no enzyme=100% inhibition).

Sequence of human kinase Mps-1 (P33981 whole entry): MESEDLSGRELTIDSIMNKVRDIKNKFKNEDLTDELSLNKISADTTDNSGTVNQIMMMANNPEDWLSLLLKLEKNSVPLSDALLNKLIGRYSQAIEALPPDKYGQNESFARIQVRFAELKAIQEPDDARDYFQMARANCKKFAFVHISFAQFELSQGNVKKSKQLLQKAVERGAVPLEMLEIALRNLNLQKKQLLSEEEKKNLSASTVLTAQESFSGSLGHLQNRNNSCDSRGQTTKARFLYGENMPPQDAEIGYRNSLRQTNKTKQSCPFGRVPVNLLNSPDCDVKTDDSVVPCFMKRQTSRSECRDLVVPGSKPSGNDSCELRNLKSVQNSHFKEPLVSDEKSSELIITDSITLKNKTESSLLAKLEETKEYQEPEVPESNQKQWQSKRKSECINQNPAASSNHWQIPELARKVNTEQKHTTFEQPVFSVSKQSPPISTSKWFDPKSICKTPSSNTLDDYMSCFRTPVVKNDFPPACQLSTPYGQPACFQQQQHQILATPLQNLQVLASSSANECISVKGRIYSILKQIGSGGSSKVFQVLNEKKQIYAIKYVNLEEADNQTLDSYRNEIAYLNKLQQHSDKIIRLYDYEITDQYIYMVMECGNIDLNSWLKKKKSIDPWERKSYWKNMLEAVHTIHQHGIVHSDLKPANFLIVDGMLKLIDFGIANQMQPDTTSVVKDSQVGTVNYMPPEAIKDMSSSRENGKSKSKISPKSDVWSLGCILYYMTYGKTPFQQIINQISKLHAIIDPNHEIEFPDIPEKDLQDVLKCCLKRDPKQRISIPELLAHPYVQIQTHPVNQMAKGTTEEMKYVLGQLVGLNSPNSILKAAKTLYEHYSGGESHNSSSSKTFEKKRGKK

Row | IC50 [1] | IC50 [2] | SMILES
1 | > 20 µM | > 20 µM | Cc1nsc(Nc2cnc3ccccc3n2)c1C(=O)Nc1ccc(Oc2ccccc2)nc1 [Example 112, 3-Methyl-N-(6-phenoxypyridin-3-yl)-5-(quinoxalin-2-ylamino)-1,2-thiazole-4-carboxamide]
2 | > 20 µM | > 20 µM | CCOC(=O)c1cnc(Nc2snc(C)c2C(=O)Nc2ccc(F)c(F)c2)o1 [Example 96, Ethyl 2-({4-[(3,4-difluorophenyl)carbamoyl]-3-methyl-1,2-thiazol-5-yl}amino)-1,3-oxazole-5-carboxylate]
3 | > 20 µM | > 20 µM | Cc1nsc(Nc2cnccn2)c1C(=O)Nc1ccc(Cl)c(F)c1 [Example 56, N-(4-Chloro-3-fluorophenyl)-3-methyl-5-(pyrazin-2-ylamino)-1,2-thiazole-4-carboxamide]
4 | > 20 µM | > 20 µM | CCc1ccccc1NC(=O)c1c(C)nsc1Nc1cnc2cccc(C)c2n1 [Example 33, N-(2-Ethylphenyl)-3-methyl-5-[(8-methylquinoxalin-2-yl)amino]-1,2-thiazole-4-carboxamide]
5 | > 20 µM | > 20 µM | COc1ncc(NC(=O)c2c(C)nsc2Nc2ccc(C#N)cn2)cc1C [Example 120, 5-[(5-Cyanopyridin-2-yl)amino]-N-(6-methoxy-5-methylpyridin-3-yl)-3-methyl-1,2-thiazole-4-carboxamide]
6 | > 20 µM | > 20 µM | CCc1ccccc1NC(=O)c1c(C)nsc1Nc1ncnc2sccc12 [Example 12, N-(2-Ethylphenyl)-3-methyl-5-(thieno[2,3-d]pyrimidin-4-ylamino)-1,2-thiazole-4-carboxamide]
7 | > 20 µM | > 20 µM | COc1ccc(NC(=O)c2c(C)nsc2Nc2cc(C#N)ccn2)cn1 [Example 25, 5-[(4-Cyanopyridin-2-yl)amino]-N-(6-methoxypyridin-3-yl)-3-methyl-1,2-thiazole-4-carboxamide]
8 | > 20 µM | > 20 µM | Cc1nsc(Nc2cncc(C(=O)N(C)C)n2)c1C(=O)Nc1ccc(F)c(F)c1 [Example 104, 6-({4-[(3,4-Difluorophenyl)-carbamoyl]-3-methyl-1,2-thiazol-5-yl}amino)-N,N-dimethyl-pyrazine-2-carboxamide]
9 | > 20 µM | > 20 µM | COc1ccc(NC(=O)c2c(C)nsc2Nc2cnc3cc(Cl)ccc3n2)cn1 [Example 23, 5-[(6-Chloroquinoxalin-2-yl)amino]-N-(6-methoxypyridin-3-yl)-3-methyl-1,2-thiazole-4-carboxamide]
10 | > 20 µM | > 20 µM | COc1ccc(NC(=O)c2c(C)nsc2Nc2nc3c(C(F)(F)F)cccc3s2)cn1 [Example 48, N-(6-Methoxypyridin-3-yl)-3-methyl-5-{[4-(trifluoromethyl)-1,3-benzothiazol-2-yl]-amino}-1,2-thiazole-4-carboxamide]
11 | > 20 µM | > 20 µM | CCc1ccccc1NC(=O)c1c(C)nsc1Nc1ncnc2ccsc12 [Example 13, N-(2-Ethylphenyl)-3-methyl-5-(thieno[3,2-d]pyrimidin-4-ylamino)-1,2-thiazole-4-carboxamide]
12 | > 20 µM | > 20 µM | Cc1nsc(Nc2ccc(C#N)cn2)c1C(=O)Nc1ccc(Cl)c(F)c1 [Example 52, N-(4-Chloro-3-fluorophenyl)-5-[(5-cyanopyridin-2-yl)amino]-3-methyl-1,2-thiazole-4-carboxamide]
13 | > 20 µM | > 20 µM | CCc1ccccc1NC(=O)c1c(C)nsc1Nc1cnccn1 [Example 1, N-(2-Ethylphenyl)-3-methyl-5-(pyrazin-2-ylamino)-1,2-thiazole-4-carboxamide]
14 | > 20 µM | > 20 µM | CCNC(=O)c1csc(Nc2snc(C)c2C(=O)Nc2ccc(F)c(F)c2)n1 [Example 99, N-(3,4-Difluorophenyl)-5-{[4-(ethylcarbamoyl)-1,3-thiazol-2-yl]amino}-3-methyl-1,2-thiazole-4-carboxamide]
15 | > 20 µM | > 20 µM | COC(=O)c1cnc(Nc2snc(C)c2C(=O)Nc2ccc(OC)nc2)cn1 [Example 32, Methyl 5-({4-[(6-methoxypyridin-3-yl)carbamoyl]-3-methyl-1,2-thiazol-5-yl}amino)-pyrazine-2-carboxylate]
16 | > 20 µM | > 20 µM | COc1ccc(NC(=O)c2c(C)nsc2Nc2ncccc2C#N)cn1 [Example 36, 5-[(3-Cyanopyridin-2-yl)amino]-N-(6-methoxypyridin-3-yl)-3-methyl-1,2-thiazole-4-carboxamide]
17 | > 20 µM | > 20 µM | Cc1nsc(Nc2nc3c(C(F)(F)F)ccnc3s2)c1C(=O)Nc1ccc(Cl)c(F)c1 [Example 103, N-(4-Chloro-3-fluorophenyl)-3-methyl-5-{[7-(trifluoromethyl)[1,3]thiazolo[5,4-b]pyridin-2-yl]amino}-1,2-thiazole-4-carboxamide]
18 | > 20 µM | > 20 µM | CCc1ccccc1NC(=O)c1c(C)nsc1Nc1ccc(C#N)cn1 [Example 7, 5-[(5-Cyanopyridin-2-yl)amino]-N-(2-ethylphenyl)-3-methyl-1,2-thiazole-4-carboxamide]
19 | > 20 µM | > 20 µM | Cc1nsc(Nc2cncc(C(=O)N3CCCC3)n2)c1C(=O)Nc1ccc(F)c(F)c1 [Example 106, N-(3,4-Difluorophenyl)-3-methyl-5-{[6-(pyrrolidin-1-ylcarbonyl)pyrazin-2-yl]amino}-1,2-thiazole-4-carboxamide]
